Measured values: patent US9296720B2, “Carboxamide-substituted heteroaryl-pyrazoles and the use thereof” (AiCuris GmbH & Co. KG, priority 2011, dated 2016)

Experiments:
Assay type in all cases: cell-based
[1] = test system: HIV-1NL4-3 Wild Type; test: Luminescence reduction assay, MT4 cells infected with HIV-1NL4-3 luciferase reporter virus, wild type; conditions: Human immunodeficiency virus 1, MT4, MT4 cells, 2% FCS
Outline: (§1)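 MT4 cells pellet-infected 2 h at 37° C with HIV-1NL4-3 reporter virus (lu164 replacing nef; wild type or site-directed RT mutants), washed, then incubated with compound dilutions (1% DMSO, 2% or 10% FCS) for 5 days. Secreted luciferase read with coelenterazine buffer; EC50 = concentration halving RLU versus untreated infected cells.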

[2] = test system: HIV-1NL4-3 K103N-Y181C; test: Luminescence reduction assay, MT4 cells infected with HIV-1NL4-3 luciferase reporter virus, RT mutant K103N-Y181C; conditions: Human immunodeficiency virus 1, MT4, read-out: EC50 (μM) MT4 Cells HIV-1NL4-3 K103N-Y181C 2% FCS, MT4 cells, HIV-1NL4-3 K103N-Y181C, 2% FCS
Outline: as §1

[3] = test system: HIV-1LAI Wild Type; test: AlamarBlue viability assay, HIV-1LAI-infected MT4 cells; conditions: Human immunodeficiency virus 1, MT4, MT4 cells, 10% FCS
Outline: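 MT4 cells infected with HIV-1LAI (MOI 0.01, supernatant infection) cultured 5 days at 37 °C with compounds in RPMI with 2% or 10% FCS, 1% DMSO final. AlamarBlue fluorescence after 3 h; EC50 as 50% protection relative to uninfected cells, CC50 from high-concentration cytotoxicity.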

| SMILES | EC50 [1] | EC50 [2] | EC50 [3] |
| --- | --- | --- | --- |
| O=C1CN(C(=O)c2cc(-c3cc(Br)cc(OC(F)(F)F)c3)n(-c3ccc(Cl)nc3)n2)CN1 [Example 34, 1-({5-[3-Bromo-5-(trifluoromethoxy)phenyl]-1-(6-chloropyridin-3-yl)-1H-pyrazol-3-yl}carbonyl)imidazolidin-4-one] | 0.01 µM | 0.003 µM | 0.098 µM |
| O=C1CN(C(=O)c2cc(-c3cc(Br)cc(OC(F)(F)F)c3)n(-c3ccc(Cl)nc3)n2)CCN1 [Example 35, 4-({5-[3-Bromo-5-(trifluoromethoxy)phenyl]-1-(6-chloropyridin-3-yl)-1H-pyrazol-3-yl}carbonyl)piperazin-2-one] | 0.042 µM | 0.01 µM | 0.232 µM |
| O=C(c1cc(-c2cc(Br)cc(OC(F)(F)F)c2)n(-c2ccc(Cl)nc2)n1)N1CCSC1 [Example 36, {5-[3-Bromo-5-(trifluoromethoxy)phenyl]-1-(6-chloropyridin-3-yl)-1H-pyrazol-3-yl}(1,3-thiazolidin-3-yl)methanone] | 0.149 µM | 0.08 µM | 2.37 µM |
| O=C(c1cc(-c2cc(Br)cc(OC(F)(F)F)c2)n(-c2ccc(Cl)nc2)n1)N1CCS(=O)(=O)C1 [Example 38, {5-[3-Bromo-5-(trifluoromethoxy)phenyl]-1-(6-chloropyridin-3-yl)-1H-pyrazol-3-yl}(1,1-dioxido-1,3-thiazolidin-3-yl)methanone] | 0.023 µM | 0.007 µM | 1.22 µM |
| O=C1CN(C(=O)c2cc(-c3cc(Br)cc(OC(F)(F)F)c3)n(-c3ccc(F)nc3)n2)CN1 [Example 39, 1-({5-[3-Bromo-5-(trifluoromethoxy)phenyl]-1-(6-fluoropyridin-3-yl)-1H-pyrazol-3-yl}carbonyl)imidazolidin-4-one] | 0.009 µM | 0.007 µM | 0.062 µM |
| O=C1CN(C(=O)c2cc(-c3cc(Br)cc(OC(F)(F)F)c3)n(-c3ccc(F)nc3)n2)CCN1 [Example 40, 4-({5-[3-Bromo-5-(trifluoromethoxy)phenyl]-1-(6-fluoropyridin-3-yl)-1H-pyrazol-3-yl}carbonyl)piperazin-2-one] | 0.013 µM | 0.044 µM | 0.213 µM |
| O=C(c1cc(-c2cc(Br)cc(OC(F)(F)F)c2)n(-c2ccc(F)nc2)n1)N1CCSC1 [Example 41, {5-[3-Bromo-5-(trifluoromethoxy)phenyl]-1-(6-fluoropyridin-3-yl)-1H-pyrazol-3-yl}(1,3-thiazolidin-3-yl)methanone] | 0.042 µM | 0.087 µM | 0.991 µM |
| O=C1CN(C(=O)c2cc(-c3cc(Br)cc(OC(F)(F)F)c3)n(-c3cncc(Cl)c3)n2)CN1 [Example 42, 1-({5-[3-Bromo-5-(trifluoromethoxy)phenyl]-1-(5-chloropyridin-3-yl)-1H-pyrazol-3-yl}carbonyl)imidazolidin-4-one] | 0.018 µM | 0.028 µM | 0.247 µM |
| O=C1CN(C(=O)c2cc(-c3cc(Br)cc(OC(F)(F)F)c3)n(-c3cncc(Cl)c3)n2)CCN1 [Example 43, 4-({5-[3-Bromo-5-(trifluoromethoxy)phenyl]-1-(5-chloropyridin-3-yl)-1H-pyrazol-3-yl}carbonyl)piperazin-2-one] | 0.103 µM | 0.529 µM | 0.751 µM |
| O=C1CN(C(=O)c2cc(-c3cc(Br)cc(OC(F)(F)F)c3)n(-c3cncc(F)c3)n2)CN1 [Example 44, 1-({5-[3-Bromo-5-(trifluoromethoxy)phenyl]-1-(5-fluoropyridin-3-yl)-1H-pyrazol-3-yl}carbonyl)imidazolidin-4-one] | 0.018 µM | 0.02 µM | 0.274 µM |
| O=C1CN(C(=O)c2cc(-c3cc(Br)cc(OC(F)(F)F)c3)n(-c3cncc(F)c3)n2)CCN1 [Example 45, 4-({5-[3-Bromo-5-(trifluoromethoxy)phenyl]-1-(5-fluoropyridin-3-yl)-1H-pyrazol-3-yl}carbonyl)piperazin-2-one] | 0.095 µM | 0.232 µM | 0.55 µM |
| Cc1ccc(-n2nc(C(=O)N3CNC(=O)C3)cc2-c2cc(Br)cc(OC(F)(F)F)c2)cn1 [Example 46, 1-({5-[3-Bromo-5-(trifluoromethoxy)phenyl]-1-(6-methylpyridin-3-yl)-1H-pyrazol-3-yl}carbonyl)imidazolidin-4-one] | 0.007 µM | 0.007 µM | 0.097 µM |
| O=C1CN(C(=O)c2cc(-c3cc(Br)cc(OC(F)(F)F)c3)n(-c3ccnc(Cl)c3)n2)CN1 [Example 48, 1-({5-[3-Bromo-5-(trifluoromethoxy)phenyl]-1-(2-chloropyridin-4-yl)-1H-pyrazol-3-yl}carbonyl)imidazolidin-4-one] | 0.01 µM | 0.007 µM | 0.111 µM |
| O=C1CN(C(=O)c2cc(-c3cc(Br)cc(OC(F)(F)F)c3)n(-c3ccnc(C(F)(F)F)c3)n2)CN1 [Example 50, 1-({5-[3-Bromo-5-(trifluoromethoxy)phenyl]-1-[2-(trifluoromethyl)pyridin-4-yl]-1H-pyrazol-3-yl}carbonyl)imidazolidin-4-one] | 0.102 µM | 0.167 µM | 1.86 µM |
| O=C(c1cc(-c2cc(Br)cc(OC(F)(F)F)c2)n(-c2ccnc(C(F)(F)F)c2)n1)N1CC[S+]([O-])C1 (stereo not drawn) [Example 51, {5-[3-Bromo-5-(trifluoromethoxy)phenyl]-1-[2-(trifluoromethyl)pyridin-4-yl]-1H-pyrazol-3-yl}(1-oxido-1,3-thiazolidin-3-yl)methanone] | 0.249 µM | 1.05 µM | 1.93 µM |
| O=C(c1cc(-c2cc(Br)cc(OC(F)(F)F)c2)n(-c2ccnc(C(F)(F)F)c2)n1)N1CCS(=O)(=O)C1 [Example 52, {5-[3-Bromo-5-(trifluoromethoxy)phenyl]-1-[2-(trifluoromethyl)pyridin-4-yl]-1H-pyrazol-3-yl}(1,1-dioxido-1,3-thiazolidin-3-yl)methanone] | 0.376 µM | 0.74 µM | > 3.3 µM |
| Cc1cc(-n2nc(C(=O)N3CNC(=O)C3)cc2-c2cc(Br)cc(OC(F)(F)F)c2)ccn1 [Example 53, 1-({5-[3-Bromo-5-(trifluoromethoxy)phenyl]-1-(2-methylpyridin-4-yl)-1H-pyrazol-3-yl}carbonyl)imidazolidin-4-one] | 0.023 µM | 0.008 µM | 0.302 µM |
| Cc1cc(-n2nc(C(=O)N3CCNC(=O)C3)cc2-c2cc(Br)cc(OC(F)(F)F)c2)ccn1 [Example 54, 4-({5-[3-Bromo-5-(trifluoromethoxy)phenyl]-1-(2-methylpyridin-4-yl)-1H-pyrazol-3-yl}carbonyl)piperazin-2-one] | 0.323 µM | 0.387 µM | 1.68 µM |
| COc1cc(-n2nc(C(=O)N3CNC(=O)C3)cc2-c2cc(Br)cc(OC(F)(F)F)c2)ccn1 [Example 55, 1-({5-[3-Bromo-5-(trifluoromethoxy)phenyl]-1-(2-methoxypyridin-4-yl)-1H-pyrazol-3-yl}carbonyl)imidazolidin-4-one] | 0.003 µM | 0.01 µM | 0.104 µM |
| O=C1CN(C(=O)c2cc(-c3cc(Br)cc(OC(F)F)c3)n(-c3cccnc3)n2)CN1 [Example 56, 1-({5-[3-Bromo-5-(difluoromethoxy)phenyl]-1-(pyridin-3-yl)-1H-pyrazol-3-yl}carbonyl)imidazolidin-4-one] | 0.002 µM | 0.005 µM | 0.011 µM |
| O=C1CN(C(=O)c2cc(-c3cc(F)cc(OC(F)(F)F)c3)n(-c3cccnc3)n2)CN1 [Example 57, 1-({5-[3-Fluoro-5-(trifluoromethoxy)phenyl]-1-(pyridin-3-yl)-1H-pyrazol-3-yl}carbonyl)imidazolidin-4-one] | 0.016 µM | 0.05 µM | 0.183 µM |
| O=C(c1cc(-c2cc(F)cc(OC(F)(F)F)c2)n(-c2cccnc2)n1)N1CCSC1 [Example 59, {5-[3-Fluoro-5-(trifluoromethoxy)phenyl]-1-(pyridin-3-yl)-1H-pyrazol-3-yl}(1,3-thiazolidin-3-yl)methanone] | 0.256 µM | 1.11 µM | 2.78 µM |
| O=C(c1cc(-c2cc(F)cc(OC(F)(F)F)c2)n(-c2cccnc2)n1)N1CCOCC1 [Example 61, {5-[3-Fluoro-5-(trifluoromethoxy)phenyl]-1-(pyridin-3-yl)-1H-pyrazol-3-yl}(morpholin-4-yl)methanone] | 0.092 µM | 0.767 µM | 0.6 µM |
| O=C1CN(C(=O)c2cc(-c3cc(F)cc(OC(F)(F)F)c3)n(-c3ccnc(Cl)c3)n2)CN1 [Example 62, 1-({1-(2-Chloropyridin-4-yl)-5-[3-fluoro-5-(trifluoromethoxy)phenyl]-1H-pyrazol-3-yl}carbonyl)imidazolidin-4-one] | 0.044 µM | 0.066 µM | 0.352 µM |
| O=C1CN(C(=O)c2cc(-c3cc(F)cc(OC(F)(F)F)c3)n(-c3ccnc(Cl)c3)n2)CCN1 [Example 63, 4-({-(2-Chloropyridin-4-yl)-5-[3-fluoro-5-(trifluoromethoxy)phenyl]-1H-pyrazol-3-yl}carbonyl)piperazin-2-one] | 0.354 µM | 0.892 µM | 2.08 µM |
| O=C(c1cc(-c2cc(F)cc(OC(F)(F)F)c2)n(-c2ccnc(Cl)c2)n1)N1CC[S+]([O-])C1 (stereo not drawn) [Example 64, {1-(2-Chloropyridin-4-yl)-5-[3-fluoro-5-(trifluoromethoxy)phenyl]-1H-pyrazol-3-yl}(1-oxido-1,3-thiazolidin-3-yl)methanone] | 0.103 µM | 0.771 µM | 1.55 µM |
